The results in this text go back to patent publication US11542297B2, “Compositions and methods for treating CNS disorders” (Sage Therapeutics, Inc., priority 2014, dated 2023).

Where only a bound is given, the exact number is not on record here.

The target in this test is rat brain cortical membranes ([35S]-TBPS binding, GABA receptor complex). The test is described as follows: Steroid inhibition of [35S]-TBPS binding. As to conditions: in the presence of 5 μM GABA, read-out: 35S-TBPS Radioligand Displacement (IC50). Here is the method:
TBPS binding assays using rat brain cortical membranes in the presence of 5 μM GABA has been described (Gee et al, J. Pharmacol. Exp. Ther. 1987, 241, 346-353; Hawkinson et al, Mol. Pharmacol. 1994, 46, 977-985; Lewin, A. H et al., Mol. Pharmacol. 1989, 35, 189-194).
Briefly, cortices are rapidly removed following decapitation of carbon dioxide-anesthetized Sprague-Dawley rats (200-250 g). The cortices are homogenized in 10 volumes of […] using a glass/teflon homogenizer and centrifuged at 1500×g for 10 min at 4° C. The resultant supernatants are centrifuged at 10,000×g for 20 min at 4° C. to obtain the P2 pellets. The P2 pellets are resuspended in 200 mM NaCl/50 mM Na—K phosphate pH 7.4 buffer and centrifuged at 10,000×g for 10 min at 4° C. This washing procedure is repeated twice and the pellets are resuspended in 10 volumes of buffer. Aliquots (100 μL) of the membrane suspensions are incubated with 3 nM [^35S]-TBPS and 5 μL aliquots of test drug dissolved in dimethyl sulfoxide (DMSO) (final 0.5%) in the presence of 5 μM GABA. The incubation is brought to a final volume of 1.0 mL with buffer. […] Following a 90 min incubation at room temp, the assays are terminated by filtration through glass fiber filters (Schleicher and Schuell No. 32) using a cell harvester (Brandel) and rinsed three times with ice-cold buffer. Filter bound radioactivity is measured by liquid scintillation spectrometry. Non-linear curve fitting of the overall data for each drug averaged for each concentration is done using Prism (GraphPad).
Various compounds are or can be screened to determine their potential as modulators of [^35S]-TBPS binding in vitro. These assays are or can be performed in accordance with the above discussed procedures.
A general note: Displacement assays read how much labelled ligand stays bound in the presence of the test substance.

By IC50 is commonly meant the concentration needed to halve the response being measured. For the compound `C[C@@]1(O)CC[C@@]2(C)[C@@H](CC[C@@H]3[C@@H]2CC[C@]2(C)[C@@H](C(=O)Cn4nc5cccc(F)c5n4)CC[C@@H]32)C1` [Compound 246], the IC50 was under 10 nM.
With `C[C@H](C(=O)[C@H]1CC[C@H]2[C@@H]3CC[C@@H]4C[C@](C)(O)CC[C@]4(C)[C@H]3CC[C@]12C)n1ccnn1` [Compound 58, (R)-1-((3R,5R,8R,9S,10S,13S,14S,17S)-3-hydroxy-3,10,13-trimethylhexadecahydro-1H-cyclopenta[a]phenanthren-17-yl)-2-(1H-1,2,3-triazol-1-yl)propan-1-one] the figure was over 500 nM; with `C[C@H](C(=O)[C@H]1CC[C@H]2[C@@H]3CC[C@@H]4C[C@](C)(O)CC[C@]4(C)[C@H]3CC[C@]12C)n1nccn1` [Compound 56, (R)-1-((3R,5R,8R,9S,10S,13S,14S,17S)-3-hydroxyl-3,10,13-trimethylhexadecahydro-1H-cyclopenta[a]phenanthren-17-yl)-2-(2H-1,2,3-triazol-2-yl)propan-1-one], 50 to 100 nM; with `C[C@H](C(=O)[C@H]1CC[C@H]2[C@@H]3CC[C@H]4C[C@](C)(O)CC[C@]4(C)[C@H]3CC[C@]12C)n1cc(C#N)cn1` [Compound 80, 1-((R)-1-((3R,5S,8R,9S,10S,13S,14S,17S)-3-hydroxy-3,10,13-trimethylhexadecahydro-1H-cyclopenta[a]phenanthren-17-yl)-1-oxopropan-2-yl)-1H-pyrazole-4-carbonitrile], 100 to 500 nM.
With `C[C@@H](C(=O)[C@H]1CC[C@H]2[C@@H]3CC[C@@H]4C[C@](C)(O)CC[C@]4(C)[C@H]3CC[C@]12C)n1nnc2ccccc21` [Compound 63, (S)-2-(1H-benzo[d][1,2,3]triazol-1-yl)-1-((3R,5R,8R,9S,10S,13S,14S,17S)-3-hydroxy-3,10,13-trimethylhexadecahydro-1H-cyclopenta[a]phenanthren-17-yl)propan-1-one] the figure was 10 to 50 nM.
The value for `C[C@@H](C(=O)[C@H]1CC[C@H]2[C@@H]3CC[C@@H]4C[C@](C)(O)CC[C@]4(C)[C@H]3CC[C@]12C)n1nc2ccccc2n1` [Compound 61, (S)-2-(2H-benzo[d][1,2,3]triazol-2-yl)-1-((3R,5R,8R,9S,10S,13S,14S, 17S)-3-hydroxy-3,10,13-trimethylhexadecahydro-1H-cyclopenta[a]phenanthren-17-yl)propan-1-one] was 100 to 500 nM.
For `CSc1ccc2nnn(CC(=O)[C@H]3CC[C@H]4[C@@H]5CC[C@H]6C[C@](C)(O)CC[C@]6(C)[C@H]5CC[C@]34C)c2c1` [Compound 248], the IC50 was under 10 nM.
The value for `C[C@H](C(=O)[C@H]1CC[C@H]2[C@@H]3CC[C@H]4C[C@](C)(O)CC[C@]4(C)[C@H]3CC[C@]12C)n1ccnn1` [Compound 92, (R)-1-((3R,5S,8R,9S,10S,13S,14S,17S)-3-hydroxy-3,10,13-trimethylhexadecahydro-1H-cyclopenta[a]phenanthren-17-yl)-2-(1H-1,2,3-triazol-1-yl)propan-1-one] was over 500 nM.
The value for `C[C@H](C(=O)[C@H]1CC[C@H]2[C@@H]3CC[C@H]4C[C@](C)(O)CC[C@]4(C)[C@H]3CC[C@]12C)n1nccn1` [Compound 90, (R)-1-((3R,5S,8R,9S,10S,13S,14S,17S)-3-hydroxy-3,10,13-trimethylhexadecahydro-1H-cyclopenta[a]phenanthren-17-yl)-2-(2H-1,2,3-triazol-2-yl)propan-1-one] was over 500 nM; that for `CC(C)(C(=O)[C@H]1CC[C@H]2[C@@H]3CC[C@H]4C[C@](C)(O)CC[C@]4(C)[C@H]3CC[C@]12C)n1nnc2ccccc21` [Compound 102, 2-(1H-benzo[d][1,2,3]triazol-1-yl)-1-((3R,5S,8R,9S,10S,13S,14S,17S)-3-hydroxy-3,10,13-trimethylhexadecahydro-1H-cyclopenta[a]phenanthren-17-yl)-2-methylpropan-1-one] was over 500 nM.
